Experimental data from PubChem BioAssay (NCI).
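Cells were grown in 96-well plates and exposed to each compound for 48 hours at five concentrations; endpoints were interpolated linearly between bracketing concentrations, or set to the highest concentration if not reached. The concentration for 50% growth inhibition is given as GI50. TGI: concentration producing complete growth inhibition.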

Assays:
Test in all cases: growth of human tumour cells (NCI), 48 h
HS 578T breast = tested on: HS 578T breast
HCC-2998 colon = tested on: HCC-2998 colon
SK-MEL-28 melanoma = tested on: SK-MEL-28 melanoma
MDA-MB-231 breast = tested on: MDA-MB-231 breast
UACC-257 melanoma = tested on: UACC-257 melanoma
T-47D breast = tested on: T-47D breast
SN12C renal = tested on: SN12C renal
RPMI-8226 leukemia = tested on: RPMI-8226 leukemia
RXF 393 renal = tested on: RXF 393 renal
LOX IMVI melanoma = tested on: LOX IMVI melanoma
786-0 renal = tested on: 786-0 renal
CCRF-CEM leukemia = tested on: CCRF-CEM leukemia
KM12 colon = tested on: KM12 colon
DU-145 prostate = tested on: DU-145 prostate
SK-OV-3 ovarian = tested on: SK-OV-3 ovarian
SF-295 CNS = tested on: SF-295 CNS
BT-549 breast = tested on: BT-549 breast
U251 CNS = tested on: U251 CNS
UO-31 renal = tested on: UO-31 renal
OVCAR-4 ovarian = tested on: OVCAR-4 ovarian
PC-3 prostate = tested on: PC-3 prostate
NCI-H23 lung = tested on: NCI-H23 lung
SW-620 colon = tested on: SW-620 colon
ACHN renal = tested on: ACHN renal
OVCAR-8 ovarian = tested on: OVCAR-8 ovarian
TK-10 renal = tested on: TK-10 renal
SR leukemia = tested on: SR leukemia
A549 NSCLC = tested on: A549 NSCLC
OVCAR-3 ovarian = tested on: OVCAR-3 ovarian
NCI-H460 lung = tested on: NCI-H460 lung
NCI-H226 lung = tested on: NCI-H226 lung
OVCAR-5 ovarian = tested on: OVCAR-5 ovarian
NCI-H522 lung = tested on: NCI-H522 lung
IGROV1 ovarian = tested on: IGROV1 ovarian
MCF7 breast = tested on: MCF7 breast
HT29 colon = tested on: HT29 colon
K-562 leukemia = tested on: K-562 leukemia
CAKI-1 renal = tested on: CAKI-1 renal
HL-60(TB) leukemia = tested on: HL-60(TB) leukemia
SF-268 CNS = tested on: SF-268 CNS
HOP-92 NSCLC = tested on: HOP-92 NSCLC
MDA-MB-435 = tested on: MDA-MB-435
HCT-116 colon = tested on: HCT-116 colon
SNB-75 CNS = tested on: SNB-75 CNS
NCI/ADR-RES ovarian = tested on: NCI/ADR-RES ovarian
SF-539 CNS = tested on: SF-539 CNS
M14 melanoma = tested on: M14 melanoma
HCT-15 colon = tested on: HCT-15 colon
A498 renal = tested on: A498 renal
HOP-62 NSCLC = tested on: HOP-62 NSCLC
COLO 205 colon = tested on: COLO 205 colon
MALME-3M melanoma = tested on: MALME-3M melanoma
SK-MEL-2 melanoma = tested on: SK-MEL-2 melanoma
SNB-19 CNS = tested on: SNB-19 CNS
MOLT-4 leukemia = tested on: MOLT-4 leukemia
SK-MEL-5 melanoma = tested on: SK-MEL-5 melanoma
UACC-62 melanoma = tested on: UACC-62 melanoma

Compound: CC(C)N(Cc1c(F)cccc1F)c1ccc(CO)c(Cl)c1
- GI50 (HS 578T breast): 17.7 µM
- TGI (HS 578T breast): 40.8 µM
- GI50 (HCC-2998 colon): 2060 nM
- TGI (HCC-2998 colon): 13.8 µM
- GI50 (SK-MEL-28 melanoma): 13 µM
- TGI (SK-MEL-28 melanoma): 26.6 µM
- GI50 (MDA-MB-231 breast): 15.3 µM
- TGI (MDA-MB-231 breast): 35.8 µM
- GI50 (UACC-257 melanoma): 58.2 nM
- TGI (UACC-257 melanoma): 195 nM
- GI50 (T-47D breast): 50.2 nM
- TGI (T-47D breast): 216 nM
- GI50 (SN12C renal): 12.1 µM
- TGI (SN12C renal): 25.7 µM
- GI50 (RPMI-8226 leukemia): 529 nM
- TGI (RPMI-8226 leukemia): 27.5 µM
- GI50 (RXF 393 renal): 1630 nM
- TGI (RXF 393 renal): 20.6 µM
- GI50 (LOX IMVI melanoma): 18.5 µM
- TGI (LOX IMVI melanoma): 34.7 µM
- GI50 (786-0 renal): 13.7 µM
- TGI (786-0 renal): 29.6 µM
- GI50 (CCRF-CEM leukemia): 17.8 µM
- TGI (CCRF-CEM leukemia): 40.2 µM
- GI50 (KM12 colon): 15.8 µM
- TGI (KM12 colon): 33.1 µM
- GI50 (DU-145 prostate): 12.2 µM
- TGI (DU-145 prostate): 27.3 µM
- GI50 (SK-OV-3 ovarian): 2640 nM
- TGI (SK-OV-3 ovarian): 12.9 µM
- GI50 (SF-295 CNS): 157 nM
- TGI (SF-295 CNS): 2530 nM
- GI50 (BT-549 breast): 18.7 µM
- TGI (BT-549 breast): 34.3 µM
- GI50 (U251 CNS): 228 nM
- TGI (U251 CNS): 17.3 µM
- GI50 (UO-31 renal): 3.14 µM
- TGI (UO-31 renal): 25 µM
- GI50 (OVCAR-4 ovarian): 119 nM
- TGI (OVCAR-4 ovarian): 832 nM
- GI50 (PC-3 prostate): 12.1 µM
- TGI (PC-3 prostate): 26.1 µM
- GI50 (NCI-H23 lung): 14 µM
- TGI (NCI-H23 lung): 32.4 µM
- GI50 (SW-620 colon): 355 nM
- TGI (SW-620 colon): 18.3 µM
- GI50 (ACHN renal): 15.3 µM
- TGI (ACHN renal): 29.9 µM
- GI50 (OVCAR-8 ovarian): 6.65 µM
- TGI (OVCAR-8 ovarian): 24.7 µM
- GI50 (TK-10 renal): 32.6 nM
- TGI (TK-10 renal): 145 nM
- GI50 (SR leukemia): 19.4 µM
- TGI (SR leukemia): 46.6 µM
- GI50 (A549 NSCLC): 643 nM
- TGI (A549 NSCLC): 13.4 µM
- GI50 (OVCAR-3 ovarian): 171 nM
- TGI (OVCAR-3 ovarian): 565 nM
- GI50 (NCI-H460 lung): 134 nM
- TGI (NCI-H460 lung): 2630 nM
- GI50 (NCI-H226 lung): 72.7 nM
- TGI (NCI-H226 lung): 215 nM
- GI50 (OVCAR-5 ovarian): 70.2 nM
- TGI (OVCAR-5 ovarian): 253 nM
- GI50 (NCI-H522 lung): 18 µM
- TGI (NCI-H522 lung): 35.2 µM
- GI50 (IGROV1 ovarian): 42.4 nM
- TGI (IGROV1 ovarian): 186 nM
- GI50 (MCF7 breast): 65.5 nM
- TGI (MCF7 breast): 13.6 µM
- GI50 (HT29 colon): 2620 nM
- TGI (HT29 colon): 17.5 µM
- GI50 (K-562 leukemia): 354 nM
- TGI (K-562 leukemia): 17.9 µM
- GI50 (CAKI-1 renal): 1250 nM
- TGI (CAKI-1 renal): 15 µM
- GI50 (HL-60(TB) leukemia): 3.92 µM
- TGI (HL-60(TB) leukemia): 34.5 µM
- GI50 (SF-268 CNS): 18.3 µM
- TGI (SF-268 CNS): 34.9 µM
- GI50 (HOP-92 NSCLC): 111 nM
- TGI (HOP-92 NSCLC): 1730 nM
- GI50 (MDA-MB-435): 17.3 µM
- TGI (MDA-MB-435): 34.6 µM
- GI50 (HCT-116 colon): 40.8 nM
- TGI (HCT-116 colon): 12.4 µM
- GI50 (SNB-75 CNS): 13 µM
- TGI (SNB-75 CNS): 26.6 µM
- GI50 (NCI/ADR-RES ovarian): 10.9 µM
- TGI (NCI/ADR-RES ovarian): 27.9 µM
- GI50 (SF-539 CNS): 16.8 µM
- TGI (SF-539 CNS): 31.8 µM
- GI50 (M14 melanoma): 19.1 µM
- TGI (M14 melanoma): 37.7 µM
- GI50 (HCT-15 colon): 11.7 µM
- TGI (HCT-15 colon): 29.1 µM
- GI50 (A498 renal): 48.8 nM
- TGI (A498 renal): 148 nM
- GI50 (HOP-62 NSCLC): 553 nM
- TGI (HOP-62 NSCLC): 19.6 µM
- GI50 (COLO 205 colon): 1020 nM
- TGI (COLO 205 colon): 3.02 µM
- GI50 (MALME-3M melanoma): 17.5 µM
- TGI (MALME-3M melanoma): 33.6 µM
- GI50 (SK-MEL-2 melanoma): 848 nM
- TGI (SK-MEL-2 melanoma): 21.7 µM
- GI50 (SNB-19 CNS): 19.1 µM
- TGI (SNB-19 CNS): > 52.3 µM
- GI50 (MOLT-4 leukemia): 19.5 µM
- TGI (MOLT-4 leukemia): 46 µM
- GI50 (SK-MEL-5 melanoma): 12.7 µM
- TGI (SK-MEL-5 melanoma): 25.6 µM
- GI50 (UACC-62 melanoma): 74.8 nM
- TGI (UACC-62 melanoma): 398 nM
